Literature values in patent publication US7354941B2, “Nicotinamide benzofused-heterocyclyl derivatives useful as selective inhibitors of PDE4 isozymes” (Pfizer Products Inc., priority 2000, dated 2008).
Like-named read-outs stand apart in the source and are kept apart here.

Experiments:
PDE4 = conditions: cited from earlier work
TNFproduction = conditions: read-out: IC50, TNF production; cited from earlier work
canine tracheal PDE4 = conditions: at 100 nM; cited from earlier work
[1] = test system: PDE4 derived from tumor cells; conditions: cited from earlier work
tumor cells = conditions: cited from earlier work
[2] = test system: patients with bronchial asthma; conditions: cited from earlier work
[3] = test system: high-affinity rolipram binding site (Sr); conditions: cited from earlier work
catalytic site (Sc) = conditions: compared with SB-207,499; cited from earlier work
[4] = 54 subjects, doses up to 400 mg; cited from earlier work
[5] = rat; cited from earlier work
[6] = rat; cited from earlier work; remark: listed apart in the source
PDE4 in U937 cells = conditions: cited from earlier work
[7] = test system: antigen-induced eosinophilia; conditions: rat; cited from earlier work
[8] = test system: early phase bronchoconstriction; conditions: in vivo; cited from earlier work
guinea-pig lung PDE4 = conditions: cited from earlier work
[9] = test system: antigen-induced bronchoconstriction; conditions: guinea-pig; cited from earlier work
[10] = test system: LPS-stimulated ex vivo TNF release and PHA induced lymphocyte proliferation; conditions: oral dose of 300 mg; cited from earlier work
bronchitis = conditions: in vivo; cited from earlier work
[11] = standard in vitro guinea-pig models of asthma; cited from earlier work
[12] = test system: human peripheral blood mononuclear cells (HPBM); conditions: normal patients and subjects with atopic dermatitis; cited from earlier work
[13] = test system: lipopolysaccharide-induced bowel erythrocyte extravasation; conditions: cited from earlier work; for lipopolysaccharide-induced bowel erythrocyte extravasation: pretreatment i.p. 3×, rats; for lipopolysaccharide induced erythrocyte extravasation in rats and intestinal hypoperfusion in dogs: rat, in vivo
[14] = test system: lipopolysaccharide-induced mesenteric blood flow fall; conditions: dog, in vivo; cited from earlier work
bone loss = conditions: serial oral administrations; cited from earlier work
bone marrow culture = conditions: cited from earlier work
[15] = test system: collagen II induced arthritis; conditions: cited from earlier work
PBMC = conditions: cited from earlier work
[16] = test system: croton oil-induced ear inflammation; conditions: mouse; cited from earlier work
[17] = test system: experimental allergic encephalomyelitis; conditions: marmoset; cited from earlier work
[18] = test system: chronic relapsing experimental allergic encephalomyelitis; conditions: SJL mice; cited from earlier work
colitis = conditions: rat; cited from earlier work
[19] = test system: T-cell mediated hepatic failure; conditions: cited from earlier work
[20] = test system: isolated pulmonary artery rings; conditions: rings from normal rats and rats with hypoxia-induced pulmonary hypertension; cited from earlier work

For `COc1ccc(C(CC(N)=O)N2C(=O)c3ccccc3C2=O)cc1OC1CCCC1` (centres unmarked) [(0.0.32)], the IC50 (PDE4) is listed as 0.042 nM and the IC50 (TNFproduction) is listed as 130 nM.
In the case of `COc1ccc(C(=O)Cc2c(Cl)c[n+]([O-])cc2Cl)c2c1OCCCCO2` [(0.0.49)], the “inhibition of canine tracheal PDE4” value (canine tracheal PDE4) is listed as “almost complete inhibition”.
For `Clc1nc2c(N3CCCC3)nc(N3CCNCC3)nc2nc1NCc1ccccc1` [(0.0.55)], the IC50 [1] is given as 16 nM and the “growth of tumor cells” value (tumor cells) is given as “inhibit the growth of tumor cells at micromolar concentrations”.
In the case of `COc1ccc([C@H](Cc2ccncc2)c2ccccc2)cc1OC1CCCC1` [CDP840], the “late reactions to inhaled allergen” value ([2]; 9.5 days oral, 15 and 30 mg) is given as “suppression of late reactions to inhaled allergen”, the “adverse events of nausea or headache” value ([2]; human, in vivo) is given as “without any adverse events of nausea or headache” and the “late-phase response in the treatment of asthma” value ([2]; human, in vivo) is given as “significant inhibition of late-phase response”. For the same compound, the “affinity at the Sr” value [3] was “comparatively low affinity at the Sr” and the “potency at the Sc” value (catalytic site (Sc)) was “significantly higher potency at the Sc than does SB-207,499”.
For `Cc1cc2c3c(c1)C(c1ccccc1)=N[C@@H](NC(=O)c1ccncc1)C(=O)N3CC2` [CI-1018], the adverse events [4] is listed as “no adverse events were reported”, the oral bioavailability [5] is listed as 57% and the “ED50, oral potency” value [6] is listed as 5 mg/kg. For the same compound, the IC50 (PDE4 in U937 cells) was 1100 nM and the “inhibition of antigen-induced eosinophilia” value [7] was “active”.
In the case of `CCOc1cc2cc(CO)c(CO)c(-c3ccn(CCOC)c(=O)c3)c2cc1OCC` [Example T-440], the “inhibition of early and late phase bronchoconstriction, BAL eosinophilia, ozone-induced AHR and airway epithelial injury” value [8] is given as “activity”.
In the case of `CCOc1cc2cc(CO)c(CO)c(-c3ccnc(-n4nc(-c5cccnc5)c5ccccc5c4=O)c3)c2cc1OCC` [Example T-2585], the IC50 (guinea-pig lung PDE4) is given as 0.13 nM.
In the case of `CCNc1ncn(Cc2ccc(OC)c(OC3CCCC3)c2)c2nc(C(C)C)nc1-2` [Example V-11294A], the “inhibition of antigen-induced bronchoconstriction” value [9] is given as “active” and the “TNF levels and lymphocyte proliferation” value [10] is given as “effective in reducing TNF levels and lymphocyte proliferation”.
For `Cc1c[n+]([O-])ccc1CC(c1ccc(C(O)(C(F)(F)F)C(F)(F)F)cc1)c1ccc(OC(F)F)c(OC(F)F)c1` [L-826,141], the “activity in a rat model of bronchitis” value (bronchitis) is listed as “activity”.
For `O=C(Nc1c(Cl)cncc1Cl)c1ccc(OC(F)F)c(OCC2CC2)c1` [Roflumilast], the IC50 [11] is given as 3.5 nM.
In the case of `CCCCn1c(=O)c2c(ncn2CC(C)=O)n(CCCC)c1=O` [denbufylline], the “inhibition of the proliferation of HPBM” value [12] is listed as “concentration-related inhibition”, the “lipopolysaccharide-induced bowel erythrocyte extravasation” value [13] is listed as “reduces lipopolysaccharide-induced bowel erythrocyte extravasation” and the “lipopolysaccharide induced erythrocyte extravasation in rats and intestinal hypoperfusion in dogs” value [13] is listed as “attenuated”. For the same compound, the “potency relative to pentoxifylline in inhibiting mesenteric blood flow fall” value [14] was 100 fold, the “bone mineral density of femurs” value (bone loss) was “inhibit the decrease in the bone mineral density of femurs” and the “mineralized nodules and osteoclast-like cells” value (bone marrow culture) was “increase in the number of mineralized nodules and a decrease in the number of osteoclast-like cells”.
In the case of `COc1ccc(C2CNC(=O)C2)cc1OC1CCCC1` (centres unmarked) [rolipram], the “appearance of arthritic symptoms” value ([15]; 2 mg/kg twice daily for five days before the onset of arthritis) is listed as “significantly delayed the appearance of arthritic symptoms”, the “development of the disease, arthritis severity” value ([15]; 3 mg/kg twice daily when arthritis was apparent) is listed as “progression of severity was halted” and the “TNF-α and IFN mRNA expression in regional lymph nodes” value ([15]; rat, in vivo) is listed as “strong down-regulation of TNF-α and IFN7 mRNA expression”. The “inhibition of the proliferation of HPBM” value [12] was “concentration-related inhibition”, the IC50 (PBMC; PHA stimulated atopic dermatitis PBMC proliferation) was 280 nM and the IC50 (PBMC; PHA stimulated normal PBMC proliferation) was 2600 nM. The “topical doses inhibiting croton oil-induced ear inflammation (as low as)” value [16] was 0.03 mg per ear, the “clinical signs and MRI abnormalities” value [17] was “suppress the appearance of clinical signs and abolish abnormalities in MRI imaging” and the “clinical signs and pathological changes” value [18] was “ameliorates clinical signs and pathological changes”. For the same compound, the “effects in dextran sulfate induced colitis model” value (colitis) was “beneficial effects comparable to prednisolone”, the “lipopolysaccharide-induced bowel erythrocyte extravasation” value [13] was “reduces lipopolysaccharide-induced bowel erythrocyte extravasation” and the “lipopolysaccharide induced erythrocyte extravasation in rats and intestinal hypoperfusion in dogs” value [13] was “attenuated”. For the same compound, the “plasma TNF-α and INF-γ concentrations” value ([19]; 0.1 to 10 mg/kg i.p. 30 minutes before challenge) was “significantly reduce plasma TNF-α and INF-γ concentrations”, the IL-10 levels ([19]; 0.1 to 10 mg/kg i.p.) was “significantly elevates IL-10 levels” and the “plasma activities of ALT, AST, and SDH” value ([19]; 0.1 to 10 mg/kg i.p.) was “dose-dependently inhibited”. The “concanavalin A-induced IL4 release” value ([19]; mouse, in vivo) was “suppress concanavalin A-induced IL4 release” and the “relaxant activities of isoproterenol and forskolin” value [20] was “potentiates the relaxant activities of isoproterenol and forskolin”.
